# Measurements taken from PubChem BioAssay AID1387 (Sanford-Burnham Center for Chemical Genomics, 2008).
# Tested on: CSM14.1 cells, thapsigargin, p-p38/p38 MSD immunoassay
# Assay: p-p38/p38 reduction after thapsigargin stress – cell lysate, CSM14.1 cells, immunoblotting, mechanism study for ER stress cell death project, dose response (AID 1387)
# Conditions: at 10 µM (top of the series)
structure (smiles),measurement,value
COc1ccc(C2CC(=O)C3=C(C2)Nc2ccccc2NC3c2cccc(Oc3ccccc3)c2)cc1OC (stereo unspecified),"relative p-p38/p38 ratio, lower = inhibition",0
